# Data reported in patent US10836745B2, “Cocrystal, production method thereof, and medicament containing cocrystal” (Takeda Pharmaceutical Company Limited, priority 2015, dated 2020).
# Like-named read-outs stand apart in the source and are kept apart here.
# Key:
# [1] = Measurement of solubility (shake-flask method); format: physicochemical; settings: thermodynamic from solid, 37° C., shaken 2 hr
# Description: According to the method described in “Thermodynamic Solubility Measurement by the Shake-Flask Method” on page 1229 of Nakashima S., Chem. Pharm. Bull., 61(12) 1228-1238 (2013), the solubility of the crystals and cocrystals of compound (A) was measured. To be specific, the first fluid (JP1), the second fluid (JP2) and the second fluid containing 20 mM sodium glycochenodeoxycholate (JP2/GCDC) of the Japanese Pharmacopoeia disintegration test were added at 400 μL each to the crystals or cocrystals (0.4 mg) of compound (A), and the mixture was heated to 37° C. under air atmosphere, and shaken by a vortex mixer for 2 hr at 500 rpm. After shaking, the mixture was passed through a 0.45 μm PVDF filter, and the filtrate was analyzed by HPLC. From a chromatogram comparison with the standard solution (0.1 mg/mL), the solubility of the crystals of the single compound and the cocrystals was calculated.
# [2] = Measurement of dissolution rate (intrinsic dissolution test); format: physicochemical; settings: 7 mm disc, 200 rpm, second fluid containing cholic acid, 37° C.
# Description: According to the method described in “2.6. Intrinsic dissolution test” on page 231 of Tsutsumi S., Int. J. Pharm., 421 (2011) 230-236, the dissolution rate of the crystals and cocrystals of compound (A) was measured. To be specific, the crystals or cocrystals of compound (A) (20 mg) was pressurized by a hand press tableting machine at 20 MPa for 10 min to give a 7 mm diameter disc. The prepared disc was adhered to the inside of a rotating shaft of the United States Pharmacopeia dissolution test 1 (basket), and inserted, while rotating at 200 rpm, in the second fluid (250 mL) of the Japanese Pharmacopoeia disintegration test containing cholic acid heated to 37° C. The second fluid containing the crystals or cocrystals was collected by 0.5 mL at 1 min intervals, and analyzed by HPLC. From a chromatogram comparison with the standard solution (0.05 mg/mL), the concentration of the crystals or the cocrystals was calculated, and the dissolution rate thereof was calculated.
# Description for physchem: The base pKa of the compound (A) and the acid pKa of the gentisic acid were measured using a Sirius T3 titrator manufactured by Sirius. The base pKa means an acid dissociation constant from the protonated state, and the acid pKa means the acid dissociation constant of the acid itself.
SMILES,"solubility at 2 h ([1]; pH 1.2, simulated gastric fluid, first fluid (JP1) of Japanese Pharmacopoeia disintegration test, read-out: solubility JP1) [µg/mL]","solubility at 2 h ([1]; pH 6.8, aqueous buffer, second fluid (JP2) of Japanese Pharmacopoeia disintegration test, read-out: solubility JP2) [µg/mL]","solubility at 2 h ([1]; pH 6.8, fassgf or other biorelevant, second fluid containing 20 mM sodium glycochenodeoxycholate, read-out: solubility JP2/GCDC) [µg/mL]",dissolution rate [2] [μg/mm^2/min],pKa (physchem)
"C=CC(=O)N1CC[C@H](Oc2nc(-c3n[nH]c(=O)[nH]3)cc3ccccc23)C1 [compound (A), (S)-3-(1-((1-acryloylpyrrolidin-3-yl)oxy)isoquinolin-3-yl)-1H-1,2,4-triazol-5(4H)-one]",1.5,1.5,35.6,0.2,–
O=C(O)c1cc(O)ccc1O [gentisic acid],–,–,–,–,3.23
